According to patent US3959519A, “Fortification of food materials with a methionine source” (priority 1975, dated 1976):
Where a SMILES comes first, the peptide text is derived from it.

How the values were obtained:
[1] = Odor development on storage in sealed containers; type: physicochemical; details: recrystallized sample, sealed container, twenty-nine days at 45°C.
Method: Samples of virtually odorless, recrystallized D,L-methionine, glycyl-D,L-methionine, and D,L-alanyl-D,L-methionine were stored in sealed containers for twenty-nine days at 45°C.

[2] = Chick feeding test, body weight and feed efficiency on fortified corn-soy rations; type: in vivo, cockerels (Barred Rock males x Rhode Island females); details: for difference between responses from methionine and glycylmethionine supplemented rations: 0.15% D,L-methionine vs 0.2% glycyl-D,L-methionine; for feed efficiencies / growth: corn-soy poultry ration with 0.15% D,L-methionine or 0.2% glycyl-D,L-methionine
Source text: For this test, cockerels are produced from a cross of Barred Rock males and Rhode Island females. All the 150 cockerels are selected on the basis that their weight differs no more than 2 grams. The birds are maintained on an all vegetable protein corn-soy basal diet for a 2-week preliminary period. At the end of this period, a median group of 90 birds is selected on the basis of weight, and they are then evenly distributed into three experimental groups, which in turn are placed on the experimental rations (Table 2). The level of glycyl-D,L-methionine in Diet No. 3 is equivalent to the level of D,L-methionine in Diet No. 2, on the basis of L-methioninecontent. The birds are weighed weekly and their feed consumption also determined weekly, to permit weekly feed efficiency evaluations. […] | -- -- 92 g.

[3] = system: Leuconostoc mesenteroides P-60; assay: L-methionine bioavailability from dipeptides by turbidimetric growth response of a methionine-requiring bacterial mutant; type: cell-based; details: for utilization as a source of L-methionine by L. mesenteroides P-60: 17 hours of incubation at 37°C.; for L-Methionine Response / L-Methionine, % of Theoretical: 17 hours, 37°C.
Source text: The utilization of methionine-containing peptide can be shown, for example, in animal feeding tests. However, the formation of free methionine can also be shown directly in tests with a microorganism requiring methionine for its growth and reproduction. The following Example describes a quantitative test involving a known bacterial mutant.
Leuconostoc mesenteroides P-60 was the bacterial mutant used to assess the biological availability of L-methionine in glycyl-D,L-methionine, glycyl-L-methionine and L-methionylglycine. This mutant is unable to synthesize methionine and therefore requires an external source of this amino acid.
Under aseptic conditions, a substrate devoid of L-methionine was supplemented with graded amounts of glycyl-D,L-methionine, glycyl-L-methionine, and L-methionylglycine and then inoculated with a drop of a washed L. mesenteroides P-60 culture. After 17 hours of incubation at 37°C., the growth of L. mesenteroides P-60 in each of the culture tubes was measured turbidimetrically, at a wavelength of […]. Based on the growth response of this mutant to a similar treatment with a standard L-methionine solution of known concentration, the L-methionine response, if any, to the candidate peptides was evaluated.

[4] = level tested 12 μg./tube, calculated L-methionine equivalence 4.0 μg. (glycyl-D,L-methionine) or 8.0 μg. (L-dipeptides)
[5] = level tested 24 μg./tube, calculated L-methionine equivalence 8.0 μg.
[6] = level tested 6 μg./tube, calculated L-methionine equivalence 4.0 μg.

SMILES | odor after storage [1] | difference between responses from methionine and glycylmethionine supplemented rations [2] | feed efficiencies [2] | growth [2] | utilization as a source of L-methionine by L. mesenteroides P-60 [3] | L-Methionine Response [3, 4] | L-Methionine, % of Theoretical [3, 4] | L-Methionine Response [3, 5] | L-Methionine, % of Theoretical [3, 5] | L-Methionine Response [3, 6] | L-Methionine, % of Theoretical [3, 6]
CSCCC(NC(=O)C(C)N)C(=O)O (mixture of isomers) [D,L-alanyl-D,L-methionine] | developed a typical sulfurous odor | – | – | – | – | – | – | – | – | – | –
CSCCC(N)C(=O)O (racemic) [D,L-Methionine, D,L-methionine, reference compound] | developed a typical sulfurous odor | No significant difference | improved feed efficiencies | significant growth increases | – | – | – | – | – | – | –
CSCCC(NC(=O)CN)C(=O)O (racemic) [Glycyl-D,L-Methionine, glycyl-D,L-methionine] | still virtually odor-free | No significant difference | improved feed efficiencies | significant growth increases | can utilize | 3.5 µg | 88% | 7.5 µg | 94% | – | –
CSCC[C@H](NC(=O)CN)C(=O)O [Glycyl-L-Methionine, glycyl-L-methionine] | – | – | – | – | can utilize | 7.8 µg | 97% | – | – | 4.5 µg | 112%
CSCC[C@H](N)C(=O)NCC(=O)O [L-Methionylglycine, L-methionylglycine] (H-Met-Gly-OH) | – | – | – | – | can utilize | 7.5 µg | 94% | – | – | 4.0 µg | 100%
